pIC50: −log10 of the molar value. Where a name gives a salt, the structure may show the parent alone.
Tests used:
ATM = ATM (Homo sapiens (Human), UniProt Q13315); assay: ATM in Cell Western Assay (pKAP1 in etoposide-treated MCF-7 cells); type: cell-based; details: MCF-7 cells, etoposide 100 μM, 1 hr, pKAP1 readout
Summary of the method: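 Cells received compounds in a 10-dose, 3-fold series from a 1 μM final top concentration, then 100 μM etoposide, for 1 hr at 37° C. They were then fixed with paraformaldehyde and permeabilized with 0.1% Triton X-100. After immunostaining, plates were scanned on an infrared imager.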

DNA-PK = DNA-PK (Homo sapiens (Human), UniProt P78527); assay: DNA-PK Enzyme-Linked Immunosorbent Assay (phosphorylation of GST-p53 (1-101) peptide); type: biochemical; details: ELISA, ATP 20 μM
Summary of the method: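 ELISA with plate-bound GST-p53 (1-101) phosphorylated by DNA-PK (0.1 μg/mL final) with 20 μM ATP for 1 h at 25 °C. Compounds tested over 10 3-fold doses from 100 nM top final. Phospho-p53 Ser15 detected by antibody, HRP and TMB, absorbance at 450 nm.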

Sequence of ATM (Q13315 whole entry): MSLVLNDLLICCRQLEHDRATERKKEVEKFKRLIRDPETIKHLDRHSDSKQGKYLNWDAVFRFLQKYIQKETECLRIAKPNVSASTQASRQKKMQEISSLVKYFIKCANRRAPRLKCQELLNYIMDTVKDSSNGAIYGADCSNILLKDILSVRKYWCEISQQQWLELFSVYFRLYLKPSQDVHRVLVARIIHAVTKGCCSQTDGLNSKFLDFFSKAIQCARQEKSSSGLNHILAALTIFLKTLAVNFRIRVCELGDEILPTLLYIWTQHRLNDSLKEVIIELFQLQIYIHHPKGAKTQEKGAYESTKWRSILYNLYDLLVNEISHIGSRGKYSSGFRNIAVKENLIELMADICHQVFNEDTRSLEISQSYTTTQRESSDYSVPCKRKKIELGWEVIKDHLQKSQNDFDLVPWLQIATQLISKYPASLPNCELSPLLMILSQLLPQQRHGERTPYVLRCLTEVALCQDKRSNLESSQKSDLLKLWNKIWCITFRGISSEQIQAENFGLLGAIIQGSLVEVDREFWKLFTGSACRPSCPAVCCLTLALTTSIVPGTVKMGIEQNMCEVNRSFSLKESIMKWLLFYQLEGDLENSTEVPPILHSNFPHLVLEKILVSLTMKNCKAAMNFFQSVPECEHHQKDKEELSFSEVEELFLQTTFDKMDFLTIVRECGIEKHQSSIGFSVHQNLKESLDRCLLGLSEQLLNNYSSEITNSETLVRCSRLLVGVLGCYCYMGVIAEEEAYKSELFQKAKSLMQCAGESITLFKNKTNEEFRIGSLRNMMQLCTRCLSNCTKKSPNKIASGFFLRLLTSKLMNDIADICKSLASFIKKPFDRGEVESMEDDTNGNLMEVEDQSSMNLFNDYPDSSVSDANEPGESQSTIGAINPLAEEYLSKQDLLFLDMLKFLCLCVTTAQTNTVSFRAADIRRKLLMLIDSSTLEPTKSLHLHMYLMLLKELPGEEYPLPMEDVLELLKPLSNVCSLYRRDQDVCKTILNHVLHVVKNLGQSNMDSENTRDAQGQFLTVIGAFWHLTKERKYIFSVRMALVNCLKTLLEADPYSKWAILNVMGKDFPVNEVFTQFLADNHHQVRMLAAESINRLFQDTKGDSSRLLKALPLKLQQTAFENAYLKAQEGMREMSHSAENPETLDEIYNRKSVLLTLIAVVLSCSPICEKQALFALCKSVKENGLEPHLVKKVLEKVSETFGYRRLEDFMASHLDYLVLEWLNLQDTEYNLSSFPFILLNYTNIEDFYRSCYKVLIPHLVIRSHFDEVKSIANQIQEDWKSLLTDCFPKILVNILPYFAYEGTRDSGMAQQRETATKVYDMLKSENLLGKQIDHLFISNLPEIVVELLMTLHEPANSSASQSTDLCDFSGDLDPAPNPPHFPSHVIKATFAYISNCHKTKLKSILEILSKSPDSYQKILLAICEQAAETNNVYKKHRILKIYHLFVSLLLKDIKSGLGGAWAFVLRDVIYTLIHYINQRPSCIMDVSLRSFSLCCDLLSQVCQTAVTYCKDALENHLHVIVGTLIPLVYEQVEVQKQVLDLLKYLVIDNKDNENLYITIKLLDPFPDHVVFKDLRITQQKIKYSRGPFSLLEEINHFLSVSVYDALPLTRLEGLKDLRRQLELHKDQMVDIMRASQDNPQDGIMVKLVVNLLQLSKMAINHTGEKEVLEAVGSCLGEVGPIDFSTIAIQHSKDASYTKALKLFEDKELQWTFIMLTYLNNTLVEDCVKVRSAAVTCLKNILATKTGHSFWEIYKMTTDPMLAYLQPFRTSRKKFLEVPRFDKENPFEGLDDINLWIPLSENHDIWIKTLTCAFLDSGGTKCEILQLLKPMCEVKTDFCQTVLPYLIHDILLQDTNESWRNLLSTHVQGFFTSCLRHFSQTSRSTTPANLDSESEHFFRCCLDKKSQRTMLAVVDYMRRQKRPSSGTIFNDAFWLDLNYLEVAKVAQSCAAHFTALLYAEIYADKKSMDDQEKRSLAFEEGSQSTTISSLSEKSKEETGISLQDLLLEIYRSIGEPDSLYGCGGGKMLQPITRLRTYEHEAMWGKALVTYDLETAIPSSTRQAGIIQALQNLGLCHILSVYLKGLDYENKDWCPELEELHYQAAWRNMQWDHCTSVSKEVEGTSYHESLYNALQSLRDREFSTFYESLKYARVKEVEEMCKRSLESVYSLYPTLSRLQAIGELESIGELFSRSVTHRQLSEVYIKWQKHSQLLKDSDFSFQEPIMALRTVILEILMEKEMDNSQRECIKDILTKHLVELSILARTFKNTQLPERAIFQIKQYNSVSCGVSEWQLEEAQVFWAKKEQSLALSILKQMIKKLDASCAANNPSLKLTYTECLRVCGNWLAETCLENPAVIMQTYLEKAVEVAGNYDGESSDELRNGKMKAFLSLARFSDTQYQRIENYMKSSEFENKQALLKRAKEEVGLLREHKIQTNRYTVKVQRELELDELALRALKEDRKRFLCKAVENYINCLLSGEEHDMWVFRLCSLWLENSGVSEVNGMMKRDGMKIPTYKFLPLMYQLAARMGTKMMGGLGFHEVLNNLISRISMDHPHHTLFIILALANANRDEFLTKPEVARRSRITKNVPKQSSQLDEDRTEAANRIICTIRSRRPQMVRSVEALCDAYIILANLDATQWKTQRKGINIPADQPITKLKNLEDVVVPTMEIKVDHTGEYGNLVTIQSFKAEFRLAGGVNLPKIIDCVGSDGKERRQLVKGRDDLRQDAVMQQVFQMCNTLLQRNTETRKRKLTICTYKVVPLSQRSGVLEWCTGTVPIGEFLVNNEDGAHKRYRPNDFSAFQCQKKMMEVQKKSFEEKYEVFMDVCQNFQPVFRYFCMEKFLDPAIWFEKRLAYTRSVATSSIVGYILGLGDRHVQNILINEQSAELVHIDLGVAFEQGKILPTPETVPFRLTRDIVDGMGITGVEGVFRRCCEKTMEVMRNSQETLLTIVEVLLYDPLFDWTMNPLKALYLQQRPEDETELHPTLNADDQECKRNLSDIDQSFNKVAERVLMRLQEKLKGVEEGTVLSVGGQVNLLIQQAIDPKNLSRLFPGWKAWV

SMILES	pIC50 (ATM)	pIC50 (DNA-PK)
Cc1ccc(S(=O)(=O)Nc2cc(-c3ccc4ncc5c(c4c3F)C3(CC3)C(=O)N5C)cnc2OCCCN(C)C)cc1 [Example 215, N-(2-(3-(Dimethylamino)propoxy)-5-(9′-fluoro-3′-methyl-2′-oxo-2′,3′-dihydrospiro[cyclopropane-1,1′-pyrrolo[2,3-c]quinolin]-8′-yl)pyridin-3-yl)-4-methylbenzenesulfonamide]	9.00 to 9.30	> 9.30
Cc1ccc(S(=O)(=O)n2c(CCN3CCCCC3)cc3ncc(-c4ccc5ncc6c(c5c4)C4(CCC4)C(=O)N6C)cc32)cn1 [Example 216, 3′-Metbyl-8′-(1-((6-methylpyridin-3-yl)sulfonyl)-2-(2-(piperidin-1-yl)ethyl)-1H-pyrrolo[3,2-b]pyridin-6-yl)spiro[cyclobutane-1,1′-pyrrolo[2,3-c]quinolin]-2′(3′-H)-one]	7.00 to 9.00	7.00 to 9.00
Cc1ccc(S(=O)(=O)Nc2cc(-c3cc4c5c(cnc4cc3F)N(C)C(=O)C53CCC3)cnc2OCCCN2CCCCC2)cn1 [Example 217, N-(5-(7′-Fluoro-3′-methyl-2′-oxo-2′,3′-dihydrospiro[cyclobulane-1,1′-pyrrolo[2,3-c]quinolin]-8′-yl)-2-(3-(piperidin-1-yl)propoxy)pyridin-3-yl)-6-methylpyridine-3-sulfonamide hydrochloride]	7.00 to 9.00	7.00 to 9.00
Cc1ccc(S(=O)(=O)Nc2cc(-c3ccc4ncc5c(c4c3)C3(CC3)C(=O)N5C)cnc2N2CCC(N3CCCCC3)CC2)cn1 [Example 218]	7.00 to 9.00	> 9.30
CN(C)CCCOc1ncc(-c2ccc3ncc4c(c3c2)C2(CCC2)C(=O)N4C)cc1NS(=O)(=O)c1ccc(O)cc1 [Example 220, N-(2-(3-(Dimethylamino)propoxy)-5-(3′-methyl-2′-oxo-2′,3′-dihydrospiro [cyclobutane-1,1′-pyrrolo[2,3-c]quinolin]-8′-yl)pyridin-3-yl)-4-hydroxybenzenesulfonamide hydrochloride]	7.00 to 9.00	> 9.30
Cl.[2H]C1([2H])N(CCCOc2ncc(-c3ccc4ncc5c(c4c3)C3(CCC3)C(=O)N5C)cc2NS(=O)(=O)c2ccc(C)nc2)C([2H])([2H])C([2H])([2H])C([2H])([2H])C1([2H])[2H] [Example 221, 6-Methyl-N-(5-(3′-methyl-2′-oxo-2′,3′-dihydrospiro[cyclobulane-1,1′-pyrrolo[2,3-c]quinolin]-8′-yl)-2-(3-(piperidin-1-yl-d10)propoxy)pyridin-3-yl)pyridine-3-sulfonamide hydrochloride]	7.00 to 9.00	9.00 to 9.30
CCN(C)S(=O)(=O)Nc1cc(-c2ccc3ncc4c(c3c2)C2(CCC2)C(=O)N4C)cnc1OCCCN1CCCCC1 [Example 222, 8′-(5-{[Ethyl(methyl)sulfamoyl]amino}-6-[3-(piperidin-1-yl)propoxy]pyridin-3-yl)-3′-methyl-2′,3′-dihydrospiro [cyclobutane-1,1′-pyrrolo[2,3-c]quinoline]-2′-one]	7.00 to 9.00	7.00 to 9.00
CN(C)CCCOc1ncc(-c2ccc3ncc4c(c3c2)C2(CCC2)C(=O)N4C)cc1NS(=O)(=O)CCN [Example 223, 2-Amino-N-(2-(3-(dimethylamino)propoxy)-5-(3′-methyl-2′-oxo-2′,3′-dihydrospiro[cyclobutane-1,1′-pyrrolo[2,3-c]quinolin]-8′-yl)pyridin-3-yl)ethane-1-sulfonamide]	7.00 to 9.00	> 9.30
CN1C(=O)C2(CCC2)c2c1cnc1ccc(-c3cnc(N4CCC(N(C)C)CC4)c(NS(C)(=O)=O)c3)cc21 [Example 224, N-(2-(4-(Dimethylamino)piperidin-1-yl)-5-(3′-methyl-2′-oxo-2′,3′-dihydrospiro[cyclobutane-1,1′-pyrrolo[2,3-c]quinolin]-8′-yl)pyridin-3-yl)methanesulfonamide]	7.00 to 9.00	> 9.30

Reference: patent US12187742B2 (XRAD Therapeutics, Inc., priority 2018, dated 2025)
